According to patent publication US7078163B2, “Process for reducing mineralization of tissue used in transplantation” (Medtronic, Inc., priority 2001, dated 2006):

Target: T1, Chymotrypsin (Bos taurus, UniProt P00766)
T1 construct: purchased Sigma C 4129; host or cells: bovine pancreas (tissue-derived)
Experiment: AZOCOLL enzyme activity assay of chymotrypsin after exposure to reducing agent
Format: biochemical, bovine
Conditions: chymotrypsin exposed to DTT 10 mM in presence of SDS 1% w:v, 2 hours, 37-40° C., desalted; AZOCOLL 37° C. 20 minutes; mean of 3; positive control 0.523, negative control 0.003
Description: Stock trypsin and chymotrypsin solutions were solubilized from dry powder supplied by the manufacturer in PBS, pH 7.4, at room temperature. Protein concentrations were set at 1 mg/ml. Protein solutions were sterile filtered through a 0.45 μm syringe filter to eliminate potential bacterial contamination.
Working solution of the protein was prepared by dilution from concentrated stock to a final concentration of 100 μg/ml.
The protein was incubated with the agents for 2 hours. […] The protein was passed over a Sephadex G-25 column, as described above, to prepare it for the assay. After the protein was eluted from the column it was used immediately in the assay.
Each of the proteins that were exposed to an agent was assessed for its activity by incubating it with a collagen substrate with an azo containing dye. AZOCOLL was suspended in PBS at a concentration of 1 mg/ml.
For the assay, 1 ml of protein was mixed with 1 ml of AZOCOLL substrate. The reaction was performed at 37° C. for 20 minutes in Ependorff microfuge tubes. […] The aqueous solution was removed from the centrifuge tubes and the absorbance of the solution (containing soluble azo dye) was monitored at 520 nm. […]
All experiments were run in triplicate. Data reported is the mean of the 3 readings. […]

Abs. @ 520 nm: 0.031
Structure (SMILES): O[C@@H](CS)[C@@H](O)CS [reducing agent, dithiothreatol]
